Measurements reported in ChEMBL document CHEMBL1201862, “PubChem BioAssay data set” (2004).
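48-hour exposure; five concentrations; linearly interpolated endpoints. GI50 = concentration required for 50% inhibition of growth.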 The source made the active and inactive calls. No stated cut-off is given here; in the data, active = GI50 up to about 1.1 µM and inactive = higher.

Tests used:
Test in all cases: NCI tumour cell line growth inhibition, 48 h
[1] = test system: OVCAR-8
[2] = test system: M14
[3] = test system: HOP-62
[4] = test system: HT-29
[5] = test system: A549
[6] = test system: RPMI-8226
[7] = test system: NCI-H226
[8] = test system: SNB-19
[9] = test system: SK-MEL-2
[10] = test system: K562
[11] = test system: NCI-H23
[12] = test system: IGROV-1
[13] = test system: HCT-116
[14] = test system: U-251
[15] = test system: HOP-92
[16] = test system: HCC 2998
[17] = test system: DMS-273
[18] = test system: Malme-3M
[19] = test system: SW-620

Measured: GI50

COC(=O)C(/C(=N\O)C(=O)Nc1ccc(Br)cc1)c1nc2ccccc2nc1O (centres undefined)
inactive: [1] > 100 µM | [2] 58.9 µM | [3] 28.4 µM | [4] 57.1 µM | [5] > 100 µM | [6] 26.9 µM | [7] 29 µM | [8] 78.2 µM | [9] 23 µM | [10] 26.4 µM | [11] > 100 µM | [12] 19 µM | [13] 55.8 µM | [14] 34 µM | [15] 35.4 µM | [16] 92 µM | [17] 31.1 µM | [18] 45.1 µM

COc1ccc(CNC2=C(NC(C)=O)C(=O)c3ccccc3C2=O)cc1
inactive: [1] 16.8 µM | [2] 19.4 µM | [3] > 50 µM | [4] 29.4 µM | [5] 17.3 µM | [7] 12.6 µM | [8] 25.5 µM | [9] 9.18 µM | [10] 7.76 µM | [11] 6.68 µM | [12] 16.8 µM | [13] 5.09 µM | [14] 12.4 µM | [15] 6.56 µM | [16] 48.4 µM | [17] 16.4 µM | [19] 8.13 µM | [18] 8.32 µM

O=[N+]([O-])C(/C=N/Nc1ccccc1)/C=N/Nc1ccccc1
inactive: [1] > 100 µM | [2] > 100 µM | [3] > 100 µM | [4] > 100 µM | [5] > 100 µM | [7] > 100 µM | [8] > 100 µM | [9] > 100 µM | [10] > 100 µM | [11] > 100 µM | [12] > 100 µM | [13] > 100 µM | [14] > 100 µM | [15] > 100 µM | [16] > 100 µM | [17] > 100 µM | [19] > 100 µM | [18] > 100 µM

C=C(C)C(=O)OC1CC2=CC(CC3(C)OC3C3OC(=O)C(=C)C13)OC2=O (centres undefined)
inactive: [1] 9.66 µM | [2] 4.41 µM | [3] 22.4 µM | [4] 6.97 µM | [5] 18.6 µM | [7] 22.2 µM | [8] 18.5 µM | [9] 12.9 µM | [11] 15.4 µM | [12] 19.3 µM | [13] 5.01 µM | [14] 17.4 µM | [15] 2.9 µM | [16] 20 µM | [17] 12.9 µM | [19] 2.24 µM | [18] 4.23 µM

CCC(=O)C12OC3OC(C)(C)OC3C1OC(C)(C)O2 (centres undefined)
inactive: [1] > 100 µM | [2] > 100 µM | [3] > 100 µM | [4] > 100 µM | [5] > 100 µM | [7] > 100 µM | [8] > 100 µM | [9] > 100 µM | [10] > 100 µM | [11] > 100 µM | [12] > 100 µM | [13] > 100 µM | [14] > 100 µM | [15] > 100 µM | [16] > 100 µM | [17] > 100 µM | [19] > 100 µM | [18] 9.44 µM

OC(c1ccccc1)(c1ccccc1)c1cccnc1
inactive: [1] > 100 µM | [2] > 100 µM | [3] > 100 µM | [4] > 100 µM | [5] > 100 µM | [6] > 100 µM | [7] > 100 µM | [8] > 100 µM | [9] > 100 µM | [10] > 100 µM | [11] > 100 µM | [12] > 100 µM | [13] > 100 µM | [14] > 100 µM | [16] > 100 µM | [17] > 100 µM | [19] > 100 µM | [18] > 100 µM

CNC(=O)CN(CC(=O)O)C(=O)NC
inactive: [1] > 100 µM | [2] > 100 µM | [3] > 100 µM | [4] > 100 µM | [5] > 100 µM | [6] > 100 µM | [8] > 100 µM | [9] > 100 µM | [10] > 100 µM | [11] > 100 µM | [12] > 100 µM | [14] > 100 µM | [15] > 100 µM | [16] > 100 µM | [17] > 100 µM | [19] > 100 µM | [18] > 100 µM

CC(=O)Oc1cc2c(cc1OC(C)=O)C1(C)CCC2(C)c2cc(OC(C)=O)c(OC(C)=O)cc21
inactive: [1] 15 µM | [2] 18.3 µM | [3] 21.6 µM | [4] 4.75 µM | [5] 34 µM | [6] 3.52 µM | [8] 4.75 µM | [9] 16.7 µM | [10] 5.6 µM | [11] 43.2 µM | [12] 26.7 µM | [15] 6.9 µM | [16] 25.1 µM | [17] 19.4 µM | [19] 7.73 µM | [18] 13 µM

COc1cc2c(cc1OC)c1c(OC)c(OC)cc3c1c1c2sc(=S)n1CC3
inactive: [1] 41.8 µM | [2] 18.4 µM | [4] 50.2 µM | [5] > 100 µM | [6] 32.1 µM | [7] > 100 µM | [8] 67.1 µM | [9] > 100 µM | [10] 21.6 µM | [11] 44.4 µM | [12] > 100 µM | [13] 97.9 µM | [14] 66.5 µM | [15] > 100 µM | [16] 53.1 µM | [17] 53.1 µM | [19] 51.1 µM | [18] 86.3 µM

COc1ccc(C2C(Cl)C(=O)N2n2cnc3ccccc3c2=O)cc1OC (centres undefined)
inactive: [1] > 100 µM | [2] > 100 µM | [3] > 100 µM | [4] > 100 µM | [5] > 100 µM | [6] 81.1 µM | [7] 30.5 µM | [8] 52.4 µM | [9] > 100 µM | [10] > 100 µM | [11] 42 µM | [12] 74.1 µM | [13] 53 µM | [14] > 100 µM | [16] > 100 µM | [17] > 100 µM | [19] > 100 µM | [18] > 100 µM

C[P+](C)(CC(F)(F)F)c1ccccc1
inactive: [1] > 100 µM | [2] > 100 µM | [3] > 100 µM | [4] > 100 µM | [5] > 100 µM | [6] > 100 µM | [7] > 100 µM | [8] > 100 µM | [9] > 100 µM | [10] > 100 µM | [11] > 100 µM | [12] > 100 µM | [13] > 100 µM | [14] > 100 µM | [16] > 100 µM | [17] > 100 µM | [19] > 100 µM | [18] > 100 µM
